Experimental data: ChEMBL document CHEMBL3638714, “Fused heterocyclic derivative and pharmaceutical use thereof” (2015)

Target: Xanthine dehydrogenase/oxidase (Bos taurus, UniProt P80457)
Assay: Inhibition Assay: Xanthine oxidase (from bovine milk, Sigma) was prepared with phosphate-buffered saline (PBS) at 0.02 units/mL, and then the solution was added to 96 well plates at 50 μL/well. In addition, test compounds diluted with PBS were added at 50 μL/well. Xanthine (manufactured by Wako pure chemical) at 200 μM prepared with PBS was added at 100 μL/well, and the reaction was conducted for 10 minutes at room temperature. Absorbance at 290 nm was measured by using a microplate reader SpectraMax Plus 384 (manufactured by Molecular device).

Sequence of Xanthine dehydrogenase/oxidase (P80457 whole entry): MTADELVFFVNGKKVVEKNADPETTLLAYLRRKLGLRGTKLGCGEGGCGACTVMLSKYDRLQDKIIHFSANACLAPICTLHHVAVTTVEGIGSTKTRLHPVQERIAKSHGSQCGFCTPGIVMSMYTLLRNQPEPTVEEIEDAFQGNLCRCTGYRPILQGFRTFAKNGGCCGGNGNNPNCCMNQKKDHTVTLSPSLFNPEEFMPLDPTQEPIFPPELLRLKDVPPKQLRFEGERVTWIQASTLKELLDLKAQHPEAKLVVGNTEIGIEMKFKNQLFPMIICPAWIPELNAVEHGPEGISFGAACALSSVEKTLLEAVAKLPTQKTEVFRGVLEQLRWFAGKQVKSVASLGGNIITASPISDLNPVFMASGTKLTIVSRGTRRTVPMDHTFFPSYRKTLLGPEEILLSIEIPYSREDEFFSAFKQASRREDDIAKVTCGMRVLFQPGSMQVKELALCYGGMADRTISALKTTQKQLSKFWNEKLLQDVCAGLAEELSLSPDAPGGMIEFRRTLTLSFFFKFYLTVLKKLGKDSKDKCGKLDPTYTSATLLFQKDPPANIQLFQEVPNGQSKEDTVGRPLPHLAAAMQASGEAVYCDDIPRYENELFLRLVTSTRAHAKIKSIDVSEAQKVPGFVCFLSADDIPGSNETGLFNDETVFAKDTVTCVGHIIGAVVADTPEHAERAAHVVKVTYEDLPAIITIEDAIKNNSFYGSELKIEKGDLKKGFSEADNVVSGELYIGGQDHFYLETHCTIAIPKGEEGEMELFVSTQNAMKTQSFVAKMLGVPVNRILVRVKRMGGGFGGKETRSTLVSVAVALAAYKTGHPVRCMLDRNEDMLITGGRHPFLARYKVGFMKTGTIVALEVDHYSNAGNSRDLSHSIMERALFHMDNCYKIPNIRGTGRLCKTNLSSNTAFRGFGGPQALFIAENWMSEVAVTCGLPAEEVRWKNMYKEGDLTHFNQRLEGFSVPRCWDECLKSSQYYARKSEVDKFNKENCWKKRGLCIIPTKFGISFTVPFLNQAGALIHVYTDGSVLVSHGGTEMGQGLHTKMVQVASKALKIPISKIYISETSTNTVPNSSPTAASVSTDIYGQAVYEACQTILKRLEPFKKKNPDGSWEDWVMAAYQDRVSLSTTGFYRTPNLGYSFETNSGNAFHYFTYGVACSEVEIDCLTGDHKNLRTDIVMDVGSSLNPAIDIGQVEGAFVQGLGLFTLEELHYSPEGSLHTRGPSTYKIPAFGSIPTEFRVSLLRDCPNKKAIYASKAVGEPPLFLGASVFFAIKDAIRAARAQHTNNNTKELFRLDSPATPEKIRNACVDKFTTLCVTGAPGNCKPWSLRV

IC50	SMILES
10 nM	[C-]#[N+]c1cn(-c2ccc(C(=O)O)c(O)c2)c2cscc12
14 nM	[C-]#[N+]c1cn(-c2ccc(C(=O)O)c(O)c2)c2sc(Br)cc12
13 nM	[C-]#[N+]c1cn(-c2ccc(C(=O)O)c(O)c2)c2sccc12
